According to the NIST ThermoML archive (doi:10.1021/acs.jced.6b00181):

Assay: xn = mol fraction of the nth substance listed
Details: Liquid, Other PVT measurement

C=CC [propene] + CCCCCC
Details	mass density [kg/m3]
294.9 K, 1200 kPa, x1 = 0.9003	515.1
294.9 K, 1800 kPa, x1 = 0.9003	516.8
294.9 K, 2800 kPa, x1 = 0.9003	519
294.9 K, 3300 kPa, x1 = 0.9003	520.8
294.9 K, 4400 kPa, x1 = 0.9003	523.3
294.9 K, 10300 kPa, x1 = 0.9003	535.5
294.9 K, 17100 kPa, x1 = 0.9003	547.5
294.9 K, 24100 kPa, x1 = 0.9003	557.1
294.9 K, 30800 kPa, x1 = 0.9003	565.9
294.9 K, 37800 kPa, x1 = 0.9003	573.2
294.9 K, 44200 kPa, x1 = 0.9003	580.2
294.9 K, 51200 kPa, x1 = 0.9003	587.4
294.9 K, 55000 kPa, x1 = 0.9003	591.5
294.9 K, 58300 kPa, x1 = 0.9003	593.8
294.9 K, 67300 kPa, x1 = 0.9003	601.9
295 K, 1400 kPa, x1 = 0.606	568
295 K, 5200 kPa, x1 = 0.606	574.6
295 K, 6800 kPa, x1 = 0.606	577
295 K, 10300 kPa, x1 = 0.606	582.2
295 K, 17200 kPa, x1 = 0.606	592
295 K, 23900 kPa, x1 = 0.606	600
295 K, 30600 kPa, x1 = 0.606	606.9
295 K, 37500 kPa, x1 = 0.606	613.5
295 K, 44500 kPa, x1 = 0.606	619.4
295 K, 51100 kPa, x1 = 0.606	624.9
295 K, 57900 kPa, x1 = 0.606	630
295 K, 63100 kPa, x1 = 0.606	634.3
295 K, 66800 kPa, x1 = 0.606	636.7
295.3 K, 500 kPa, x1 = 0.4466	592.6
295.3 K, 700 kPa, x1 = 0.4466	594.3
295.3 K, 1400 kPa, x1 = 0.4466	595.1
295.3 K, 2100 kPa, x1 = 0.4466	596.8
295.3 K, 2800 kPa, x1 = 0.4466	597.6
295.3 K, 3700 kPa, x1 = 0.4466	598.9
295.3 K, 4800 kPa, x1 = 0.4466	600.6
295.3 K, 6800 kPa, x1 = 0.4466	603.6
295.3 K, 10200 kPa, x1 = 0.4466	607.9
295.3 K, 16900 kPa, x1 = 0.4466	615.3
295.3 K, 24100 kPa, x1 = 0.4466	622.5
295.3 K, 30900 kPa, x1 = 0.4466	629
295.3 K, 38100 kPa, x1 = 0.4466	634.6
295.3 K, 44500 kPa, x1 = 0.4466	640.3
295.3 K, 51600 kPa, x1 = 0.4466	646.2
295.3 K, 58300 kPa, x1 = 0.4466	651.1
295.3 K, 63000 kPa, x1 = 0.4466	654.6
295.3 K, 66500 kPa, x1 = 0.4466	657.1
295.6 K, 700 kPa, x1 = 0.1414	638.3
295.6 K, 1300 kPa, x1 = 0.1414	639.2
295.6 K, 1700 kPa, x1 = 0.8985	516.2
295.6 K, 1900 kPa, x1 = 0.8985	518.5
295.6 K, 2600 kPa, x1 = 0.8985	518.5
295.6 K, 3500 kPa, x1 = 0.1414	642
295.6 K, 3600 kPa, x1 = 0.8985	522.1
295.6 K, 4900 kPa, x1 = 0.8985	524.5
295.6 K, 7000 kPa, x1 = 0.8985	528.5
295.6 K, 8200 kPa, x1 = 0.1414	646.8
295.6 K, 8500 kPa, x1 = 0.8985	532.3
295.6 K, 10100 kPa, x1 = 0.8985	535.7
295.6 K, 10500 kPa, x1 = 0.8985	535.7
295.6 K, 10700 kPa, x1 = 0.1414	649.7
295.6 K, 13800 kPa, x1 = 0.8985	541.2
295.6 K, 14900 kPa, x1 = 0.1414	653.6
295.6 K, 16700 kPa, x1 = 0.8985	546.4
295.6 K, 17200 kPa, x1 = 0.8985	546.4
295.6 K, 20700 kPa, x1 = 0.1414	659.5
295.6 K, 23200 kPa, x1 = 0.8985	555.2
295.6 K, 24000 kPa, x1 = 0.1414	662.5
295.6 K, 27200 kPa, x1 = 0.1414	665.6
295.6 K, 29100 kPa, x1 = 0.8985	562.8
295.6 K, 30800 kPa, x1 = 0.1414	668.6
295.6 K, 34400 kPa, x1 = 0.8985	568.4
295.6 K, 37100 kPa, x1 = 0.1414	673.8
295.6 K, 38100 kPa, x1 = 0.8985	573.9
295.6 K, 41000 kPa, x1 = 0.8985	576.4
295.6 K, 42700 kPa, x1 = 0.1414	678.5
295.6 K, 44800 kPa, x1 = 0.8985	581.2
295.6 K, 47800 kPa, x1 = 0.1414	682.2
295.6 K, 48000 kPa, x1 = 0.1414	682.8
295.6 K, 48200 kPa, x1 = 0.1414	682.8
295.6 K, 48200 kPa, x1 = 0.8985	584.2
295.6 K, 48300 kPa, x1 = 0.1414	682.8
295.6 K, 51600 kPa, x1 = 0.8985	588
295.6 K, 52000 kPa, x1 = 0.1414	685.5
295.6 K, 54900 kPa, x1 = 0.8985	590.4
295.6 K, 55300 kPa, x1 = 0.1414	688.2
295.6 K, 55600 kPa, x1 = 0.1414	688.2
295.6 K, 58000 kPa, x1 = 0.1414	689.8
295.6 K, 58400 kPa, x1 = 0.8985	594.2
295.6 K, 61800 kPa, x1 = 0.8985	596.6
295.6 K, 61900 kPa, x1 = 0.1414	692.5
295.6 K, 66100 kPa, x1 = 0.1414	695.3
295.6 K, 66200 kPa, x1 = 0.1414	695.3
295.6 K, 67300 kPa, x1 = 0.8985	601.4
324.4 K, 900 kPa, x1 = 0.4466	560.3
324.4 K, 1400 kPa, x1 = 0.4466	561.7
324.4 K, 1900 kPa, x1 = 0.4466	562.5
324.4 K, 2100 kPa, x1 = 0.4466	563.2
324.4 K, 3400 kPa, x1 = 0.4466	565.5
324.4 K, 4900 kPa, x1 = 0.4466	568.9
324.4 K, 6800 kPa, x1 = 0.4466	571.9
324.4 K, 10200 kPa, x1 = 0.4466	577.8
324.4 K, 17200 kPa, x1 = 0.4466	588.5
324.4 K, 23800 kPa, x1 = 0.4466	597.6
324.4 K, 30700 kPa, x1 = 0.4466	606.1
324.4 K, 37800 kPa, x1 = 0.4466	614
324.4 K, 44700 kPa, x1 = 0.4466	620.3
324.4 K, 51400 kPa, x1 = 0.4466	626.2
324.4 K, 58300 kPa, x1 = 0.4466	631.8
324.4 K, 63700 kPa, x1 = 0.4466	636
324.4 K, 67500 kPa, x1 = 0.4466	638.9
324.6 K, 700 kPa, x1 = 0.1414	611.8
324.6 K, 1200 kPa, x1 = 0.1414	612.7
324.6 K, 1300 kPa, x1 = 0.606	533.2
324.6 K, 1800 kPa, x1 = 0.606	534.5
324.6 K, 1900 kPa, x1 = 0.1414	614
324.6 K, 2500 kPa, x1 = 0.606	536.2
324.6 K, 3400 kPa, x1 = 0.606	538.3
324.6 K, 3600 kPa, x1 = 0.1414	616.6
324.6 K, 5000 kPa, x1 = 0.1414	618.8
324.6 K, 5300 kPa, x1 = 0.606	542.5
324.6 K, 6800 kPa, x1 = 0.606	545.6
324.6 K, 7100 kPa, x1 = 0.1414	621.9
324.6 K, 8900 kPa, x1 = 0.1414	624.1
324.6 K, 9600 kPa, x1 = 0.1414	625.5
324.6 K, 10300 kPa, x1 = 0.1414	625.9
324.6 K, 10300 kPa, x1 = 0.606	552.4
324.6 K, 12300 kPa, x1 = 0.1414	628.6
324.6 K, 13600 kPa, x1 = 0.1414	630
324.6 K, 17100 kPa, x1 = 0.1414	634.1
324.6 K, 17400 kPa, x1 = 0.606	564.6
324.6 K, 19700 kPa, x1 = 0.1414	637.3
324.6 K, 23900 kPa, x1 = 0.606	573.8
324.6 K, 24100 kPa, x1 = 0.1414	642
324.6 K, 27400 kPa, x1 = 0.1414	644.9
324.6 K, 30700 kPa, x1 = 0.1414	648.2
324.6 K, 30700 kPa, x1 = 0.606	583.4
324.6 K, 34300 kPa, x1 = 0.1414	651.6
324.6 K, 37500 kPa, x1 = 0.1414	654.6
324.6 K, 37900 kPa, x1 = 0.606	592.4
324.6 K, 44300 kPa, x1 = 0.1414	660.5
324.6 K, 44400 kPa, x1 = 0.606	599.1
324.6 K, 47800 kPa, x1 = 0.1414	663.5
324.6 K, 51300 kPa, x1 = 0.1414	666.6
324.6 K, 51400 kPa, x1 = 0.606	606.4
324.6 K, 55200 kPa, x1 = 0.1414	669.7
324.6 K, 58100 kPa, x1 = 0.606	612.2
324.6 K, 58400 kPa, x1 = 0.1414	672.2
324.6 K, 62700 kPa, x1 = 0.1414	675.4
324.6 K, 63000 kPa, x1 = 0.606	616.2
324.6 K, 66500 kPa, x1 = 0.1414	678.5
324.6 K, 67200 kPa, x1 = 0.606	619.4
325.1 K, 2100 kPa, x1 = 0.9003	470.3
325.1 K, 2800 kPa, x1 = 0.9003	473.5
325.1 K, 3700 kPa, x1 = 0.9003	476.8
325.1 K, 7000 kPa, x1 = 0.9003	489.5
325.1 K, 10400 kPa, x1 = 0.9003	499.8
325.1 K, 16500 kPa, x1 = 0.9003	515.1
325.1 K, 24000 kPa, x1 = 0.9003	530.6
325.1 K, 30900 kPa, x1 = 0.9003	542.4
325.1 K, 37500 kPa, x1 = 0.9003	551.5
325.1 K, 44500 kPa, x1 = 0.9003	559.6
325.1 K, 51500 kPa, x1 = 0.9003	567.6
325.1 K, 58300 kPa, x1 = 0.9003	574.5
325.1 K, 63700 kPa, x1 = 0.9003	580.2
325.1 K, 67200 kPa, x1 = 0.9003	583.3
325.5 K, 2400 kPa, x1 = 0.8985	471.9
325.5 K, 2800 kPa, x1 = 0.8985	474.2
325.5 K, 3500 kPa, x1 = 0.8985	476.7
325.5 K, 4700 kPa, x1 = 0.8985	481.2
